The nature of this data set: solvent given as SMILES.

As to `COC(=O)c1c(-c2cc3ccccc3oc2=O)nn(-c2cccc(Cl)c2)c1C(=O)OC`, the absorption maximum (in ClCCl) turned out to be 273 nm.

Turning to `CC1=CC(C)=[N+]2C1=C(c1c3ccccc3c(-c3ccccc3)c3ccccc13)c1c(C)cc(C)n1[B-]2(F)F`, the absorption maximum was determined as 503 nm (in CC#N); 505 nm (in CCCCCC); 504 nm (in CCO); 507 nm (in CN(C)C=O); 509 nm (in Cc1ccccc1); 507 nm (in ClCCl).

`O=c1ccc2ccccc2o1` gave an absorption maximum (in O) of 306 nm.

In the case of `S=c1[nH]nc(-c2ccc(/C=C/c3ccc(-c4n[nH]c(=S)o4)cc3)cc2)o1`, the absorption maximum (in CN(C)C=O) was 334 nm.

`Cc1ccc(-c2ccc(-c3ccc(C)cc3)c(/C(=C(/c3ccccc3)c3cc(-c4ccc(C)cc4)ccc3-c3ccc(C)cc3)c3ccccc3)c2)cc1` gave an absorption maximum (in C1CCOC1) of 282 nm.

Regarding `Cc1cc(-c2nc(-c3ccccc3)nc(-c3ccccc3)n2)c(C)cc1-c1ccc2c(c1)C1(c3ccccc3-c3ccccc31)c1ccccc1N2c1ccccc1`, the absorption maximum (in c1cc(-c2cccc(-n3c4ccccc4c4ccccc43)c2)cc(-n2c3ccccc3c3ccccc32)c1) was 363.44 nm.

Consider `Cc1ccc(C(=O)c2c(C)c3ccc4cccc5c6cccc7ccc2c(c76)c3c45)cc1`, for which, for the setting “in ClCCl”, the absorption maximum amounted to 391 nm.

Where the note is “in Cc1ccccc1”, `CCCCCCCCN(CCCCCCCC)c1ccc(/C=C/c2ccc(C#Cc3ccc(-c4ccc(C#Cc5ccc(/C=C/c6ccc(N(CCCCCCCC)CCCCCCCC)cc6)cc5)cc4)cc3)cc2)cc1` gave an absorption maximum of 406 nm.

As to `CCOC(=O)CSc1nc2c(c(C#N)c1C#N)CCCC2`, the absorption maximum (in c1ccccc1) turned out to be 364 nm.

In turn, `c1ccc(N(c2ccccc2)c2ccc(-c3nc4ccccc4n3-c3ccccc3)cc2)cc1` came in with an absorption maximum (in CC#N) of 339 nm.

Consider `CN(C)c1ccc(-c2nc3nc4ccccc4nc3n2-c2ccccc2)cc1`, for which the absorption maximum (in CC#N) was 411 nm.

`CCC1(CC)c2cc(-c3ccc(-c4ccc5c(c4)C(CC)(CC)c4cc(C(C)(C)C)ccc4-5)cc3)ccc2-c2ccc(C(C)(C)C)cc21` showed an absorption maximum (in CO) of 332.42 nm.

Regarding `c1ccc(-n2c3ccccc3c3cc(-n4ccc5cc(-c6ccc(C7(c8ccccc8)c8ccccc8-c8ccccc87)cc6)ccc54)ccc32)cc1`, the absorption maximum (in ClCCl) was found to be 308 nm.

`CC1=CC(C)=[N+]2C1=C(c1c3ccccc3cc3ccccc13)c1c(C)cc(C)n1[B-]2(F)F`: the absorption maximum was 502 nm (in CC#N); 504 nm (in CCCCCC); 505 nm (in CCO); 505 nm (in CN(C)C=O); 508 nm (in Cc1ccccc1); 506 nm (in ClCCl).

Regarding `Cc1ccc(C2=C3C=CC=[N+]3[B-](F)(F)n3cccc32)cc1`, the absorption maximum reads like this: (in C1CCCCC1) 500.5 nm; (in CC#N) 496.5 nm; (in CCO) 497.5 nm; (in CCOC(C)=O) 497 nm; (in CO) 496 nm; (in OCC(F)(F)F) 493 nm.

As to `F[B-]1(F)n2cccc2C(c2c3ccccc3c(-c3ccccc3)c3ccccc23)=C2C=CC=[N+]21`, the absorption maximum by setting is: (in CC#N) 502 nm; (in CCCCCC) 509 nm; (in CCO) 504 nm; (in CN(C)C=O) 506 nm; (in Cc1ccccc1) 509 nm; (in ClCCl) 506 nm.

For `CNCCCC1c2ccccc2C=Cc2ccccc21`, the absorption maximum is reported as 293 nm (in CC#N), 293 nm (in CO) and 292 nm (in O).

`CCC1(CC)c2cc(-c3cccs3)ccc2-c2c1c1c(c3c2C(CC)(CC)c2cc(-c4cccs4)ccc2-3)C(CC)(CC)c2cc(-c3cccs3)ccc2-1` showed an absorption maximum (in C1CCOC1) of 340 nm.

As for `CCOC(=O)COc1ccc(C(c2c(C)[nH]c3ccccc23)c2c(C)[nH]c3ccccc23)cc1`, the absorption maximum (in C1CCCCC1) amounted to 291 nm, the absorption maximum (in CC#N) is given as 290 nm, the absorption maximum (in CO) came to 290 nm and the absorption maximum (in O) is on record as 289 nm.

Consider `CC(=O)OCCOCCN1C(=O)c2cc(NCCOCCO)c3c4c(cc(NCCOCCO)c(c24)C1=O)C(=O)N(CCOCCOC(C)=O)C3=O`, for which the absorption maximum worked out at 604 nm (in CO), 610 nm (in ClC(Cl)Cl) and 622 nm (in O).

For the compound `CCCCN1C(=S)c2cccc3cccc(c23)C1=S`, the absorption maximum reads like this: (in CC#N) 437 nm; (in CS(C)=O) 443 nm; (in Cc1ccccc1) 442 nm.

Consider `CCc1ccc(/C=N/c2cc(C(C)C)c(O)cc2C)cc1`, for which the absorption maximum is, setting by setting: (in C1CCCCC1) 344 nm; (in C1CCOC1) 348 nm; (in C1COCCO1) 347 nm; (in CC#N) 340 nm; (in CC(C)(C)O) 350 nm; (in CC(C)O) 347 nm. For the same compound, the absorption maximum is, setting by setting: (in CCCCCC) 342 nm; (in CCCCO) 349 nm; (in CCO) 346 nm; (in CCOC(C)=O) 346 nm; (in CN(C)C=O) 351 nm; (in CO) 346 nm. Also, the absorption maximum reads like this: (in CS(C)=O) 352 nm; (in ClC(Cl)Cl) 343 nm; (in ClCCl) 341 nm; (in O) 354 nm; (in OCCO) 346 nm.

`N#Cc1c(-n2c3ccccc3c3cc(I)ccc32)c(C#N)c(-n2c3ccccc3c3cc(I)ccc32)c(-n2c3ccccc3c3cc(I)ccc32)c1-n1c2ccccc2c2cc(I)ccc21` yielded an absorption maximum (in Cc1ccccc1) of 383 nm.

The compound `CC(C)(C)c1ccc(C2=C(c3ccc(-n4c5ccccc5c5ccccc54)cc3)S(=O)(=O)c3c2sc(-c2ccc(-n4c5ccccc5c5ccccc54)cc2)c3-c2ccc(C(C)(C)C)cc2)cc1` showed an absorption maximum (in C1CCOC1) of 419 nm.

For the compound `CC1(C)c2ccccc2N(c2ccc3c(c2)c(=O)c2cccc4c(=O)c5cc(N6c7ccccc7C(C)(C)c7ccccc76)ccc5n3c24)c2ccccc21`, under “in Cc1ccccc1”, the absorption maximum stood at 432.96 nm.

The compound `Cc1cccn2c1cc1c3ccccc3nc(-c3ccco3)c12` displayed an absorption maximum (in CS(C)=O) of 400 nm.

Turning to `c1ccc(-c2ccc(-c3ccc4c(c3)CCO4)cc2)cc1`, the absorption maximum (in C1CCCCC1) is reported as 289 nm.

Turning to `Cc1ccc2nc3c4c(c5ccccc5c3nc2c1)OC(=O)CC4c1ccc(C(F)(F)F)cc1` (stereo unspecified), the absorption maximum (in ClC(Cl)Cl) is on record as 411 nm.

`C[N+]1=C(/C=C/C=C2/N(CCCS(=O)(=O)[O-])c3ccccc3C2(C)C)C(C)(C)c2ccccc21`: for the setting “in CS(C)=O”, the absorption maximum stood at 553 nm.

Regarding `CCCSc1ccc2n1[B-](F)(F)[N+]1=CC=CC1=C2c1ccccc1`, the absorption maximum by setting is: (in CC#N) 531 nm; (in CCCCCC) 536 nm; (in CCOC(C)=O) 534 nm; (in CO) 536 nm; (in ClCCl) 537 nm.

Turning to `COc1cc(/C=C/c2cc(OC)c(-c3nc(-c4ccccc4)c(-c4ccccc4)[nH]3)cc2OC)c(OC)cc1/C=C/c1cc(OC)c(-c2nc(-c3ccccc3)c(-c3ccccc3)[nH]2)cc1OC`, the absorption maximum came to 444 nm (in C1CCOC1), 441 nm (in CC#N) and 447 nm (in Cc1ccccc1).

Compound `C(S/C=C/c1ccc(/C=C/SC=C2CCCCCCC2)cc1)=C1CCCCCCC1` displayed an absorption maximum (in ClCCl) of 355 nm.

Turning to `c1ccc2c(c1)-c1ccccc1C21c2ccccc2-c2oc3c(c21)C1(c2ccccc2-c2ccccc21)c1ccccc1-3`, under “in C1CCOC1”, the absorption maximum is on record as 367 nm.

Take `Cn1c(=O)cc(C(=O)c2ccccc2)c2sc(-c3ccc(OC(F)(F)F)cc3)cc21`: the absorption maximum is given as 394 nm (in CC#N) and 400 nm (in ClCCl).

`CC1=CC(C)=[N+]2C1=C(c1ccc(I)cc1)c1c(C)cc(C)n1[B-]2(F)F` registered an absorption maximum (in ClC(Cl)Cl) of 504 nm.

`CC(C)(C)c1ccc(Oc2c3c4c(cc(Oc5ccc(C(C)(C)C)cc5)c5c6c(Oc7ccc(C(C)(C)C)cc7)c(Oc7ccc(C(C)(C)C)cc7)c7c8c(cc(Oc9ccc(C(C)(C)C)cc9)c(c(c2Oc2ccc(C(C)(C)C)cc2)c45)c86)C(=O)OC7=O)C(=O)OC3=O)cc1` showed an absorption maximum (in ClC(Cl)Cl) of 571 nm.

Under “in ClCCl”, `CCCCCCCCCCCCN1C(=O)c2c(c3ccc4cc(-c5ccc(C#N)cc5)c(OC)cc4c3c3c2ccc2cc(-c4ccc(C#N)cc4)c(OC)cc23)C1=O` came in with an absorption maximum of 427 nm.

Take `FC(F)(F)C(F)(F)C(F)(F)C(F)(F)C(F)(F)C(F)(F)C(F)(F)C(F)(F)CCOc1nnc(Cl)nn1`: the absorption maximum by setting is: (in ClCCl) 519 nm; (in OCC(F)(F)F) 509 nm.

`COCCC1=Cc2nc1ccc1[nH]c(c3nc(ccc4[nH]c2cc4CCOC)C(CCOC)=C3)c2c(C(=O)OC)c(C(=O)O)ccc12`: the absorption maximum (in Cc1ccccc1) came out at 636 nm.

Consider `Cc1ccccc1-c1c2cccc3c(-c4ccc(C(C)(C)C)cc4)cc4c(-c5ccccc5C)c5cccc6c(-c7ccc(C(C)(C)C)cc7)cc1c(c65)c4c32`, for which, for the setting “in ClCCl”, the absorption maximum came out at 447 nm.

Take `CCCCCCc1ccc(-n2c3[n+](c4c5ccccc5c5ccccc5c42)[B-](C)(C)c2ccc4ccccc4c2-3)cc1`: the absorption maximum is, setting by setting: (in C1CCOC1) 392 nm; (in CC#N) 385 nm; (in Cc1ccccc1) 393 nm; (in ClCCl) 390 nm.

For the setting “in C1CCOC1”, `CC(C)(C)[Si](C)(C)C#CC1=CC2=c3cc(C#C[Si](C)(C)C(C)(C)C)c4nc(C(F)(F)C(F)(F)C(F)(F)F)nc5c(C#C[Si](C)(C)C(C)(C)C)cc(c3c54)C3=CC(C#C[Si](C)(C)C(C)(C)C)=C4N=C(C(F)(F)C(F)(F)C(F)(F)F)N=C1C4C32` (stereo unspecified) returned an absorption maximum of 513 nm.

On to `Cc1ccc2ccc3c(C)ccc4ccc1c2c43`, for which the absorption maximum runs as follows: (in CCCCCC) 344 nm; (in CO) 344 nm; (in ClCCl) 346 nm.

Source of the values: the Deep4Chem optical property database.
